# Results taken from paper PMC7730263, “Function and Regulation of the Pyruvate Transporter CstA in Escherichia coli” (International Journal of Molecular Sciences, 2020).
# B1: CstA (CstA-6His) (Escherichia coli K-12) (protein)
# chain: MNKSGKYLVWTVLSVMGAFALGYIALNRGEQINALWIVVASVCIYLIAYRFYGLYIAKNVLAVDPTRMTPAVRHNDGLDYVPTDKKVLFGHHFAAIAGAGPLVGPVLAAQMGYLPGMIWLLAGVVLAGAVQDFMVLFVSTRRDGRSLGELVKEEMGPTAGVIALVACFMIMVIILAVLAMIVVKALTHSPWGTYTVAFTIPLALFMGIYLRYLRPGRIGEVSVIGLVFLIFAIISGGWVAESPTWAPYFDFTGVQLTWMLVGYGFVAAVLPVWLLLAPRDYLSTFLKIGTIVGLAVGILIMRPTLTMPALTKFVDGTGPVWTGNLFPFLFITIACGAVSGFHALISSGTTPKMLANEGQACFIGYGGMLMESFVAIMALVSACIIDPGVYFAMNSPMAVLAPAGTADVVASAAQVVSSWGFSITPDTLNQIASEVGEQSIISRAGGAPTLAVGMAYILHGALGGMMDVAFWYHFAILFEALFILTAVDAGTRAARFMLQDLLGVVSPGLKRTDSLPANLLATALCVLAWGYFLHQGVVDPLGGINTLWPLFGIANQMLAGMALMLCAVVLFKMKRQRYAWVALVPTAWLLICTLTAGWQKAFSPDAKVGFLAIANKFQAMIDSGNIPSQYTESQLAQLVFNNRLDAGLTIFFMVVVVVLALFSIKTALAALKDPKPTAKETPYEPMPENVEEIVAQAKGAH
# notes: full-length, 701 residues, 6His tag, from plasmid pBAD24-cstA6H (uninduced) in intact E. coli MG1655 ΔbtsT ΔcstA ΔyhjX cells; inner membrane protein, TC# 2.A.114
# Key:
# [1] = target: T1, CstA (CstA-6His) (Escherichia coli, UniProt P15078); assay: competition with […]pyruvate uptake into intact cells, rapid filtration; assay type: cell-based; conditions: 1 mM competitor against 10 µM [14C]pyruvate; Tris/MES pH 7.5, 5 mM MgCl2, 15 °C; competitor for the pyruvate site
# T1 construct: full-length, 701 residues, 6His tag, from plasmid pBAD24-cstA6H (uninduced) in intact E. coli MG1655 ΔbtsT ΔcstA ΔyhjX cells; inner membrane protein, TC# 2.A.114
# [2] = substrate: CC(=O)C(=O)O; assay: cells, lysate or membranes; assay type: cell-based, Escherichia coli; conditions: labelled compound, intact cells of 3Δ mutant with p-cstA, Tris/MES pH 7.5, 5 mM MgCl2, 15 °C, background of 3Δ mutant subtracted, proton-gradient driven
Molecule,"competition with [14C]pyruvate uptake into intact cells, rapid filtration [1]",Km [2] [µM]
O=C(O)C(=O)CBr [Br-pyruvate],Only pyruvate itself or Br-pyruvate (a synthetic analogue) were found to act as competitors.,–
B1,–,242
